The subject of test [1] is RSV strain A2. As to the kind of experiment: Antiviral activity in MA-104 cells, visual CPE. The test is classed as cell-based, Respiratory syncytial virus. The settings on record: visual CPE, MOI = 0.005, added twice daily for 4 d, read on d 5. The text has this: (§1) A comparison of the efficacies of spA4 -antiRSV3'3'T/(8281-8299) treatment and conventional ribarvirin treatment can be obtained by determining the RSV-inhibitory concentration and the cytotoxic concentration of each compound. Cultures of the human laryngeal carcinoma cell line HEp-2 and the […] renal cell line MA-104 were established and infected with an MOI=0.005. Cultures were fed twice daily. Treatment with either ribavirin or spA4 -antiRSV3'3'T/(8281-8299) was begun simultaneously with infection and continued for four days. Treatment was then withdrawn and the test read on day 5. The effects of treatment on RSV infection were reported as 1) an EC50, the concentration at which there was a 50% reduction in the observable cytopathic effects of infection and 2) an EC90, the concentration at which there was a 90% reduction in viral production. […] Therapeutic efficacy is estimated by the Selectivity Index, which is the ratio of IC50 /EC50.
(§2) as determined with RSV strain A2, MOI = 0.005
(§3) Fresh medium and oligo or ribavirin added twice daily for 4 d and test read
(§4) EC50 effective concentration to reduce RSV-induced CPE by 50%.

Test [2] deals with RSV strain A2. As to the kind of experiment: Inhibition of RSV replication in RSV-infected 9HTE cells, virus plaque assay on CV-1 cells at 36 h post-infection. The test is classed as cell-based, Respiratory syncytial virus. The following applies: for % Inhibition of RSV replication: 9HTE cells, M.O.I. 2.0, 36 hrs post-infection. The text has this: To develop 2-5A antisense chimeras with the potential to block RSV replication, an oligonucleotide binding site in the viral RNA polymerase (RSV L) mRNA, which encodes a low abundance message that is absolutely required for RSV replication was selected. The first chimera synthesized and evaluated was pA4 -antiRSV/(8490-8509). The binding sites for the chimeric oligonucleotide's antisense domain are to the transcripts of nucleotides 8490-8509 in the RSV genome, which spans the translation start codon for the L protein, and to nucleotides 8490-8509 of the antigenomic strand (the template for reproduction of the genome). Since to function as an effective treatment, a candidate agent must be able to inhibit viral replication subsequent to diagnosis, the anti-RSV effect of the 2-5A antisense chimera was determined on human tracheal epithelial cells, 9HTE, with treatments beginning either 4 h before RSV infection (pre-/post-infection treatments) or 2 h following infection (post-infection treatments). In the post-infection treatments, pA4 -antiRSV/([…]), was added at t+2, t+14 and t+26, (numbers represent time in h relative to time of infection, 0) For pre-infection treatment, pA4 -antiRSV/(8490-8509) (10 μM final concentration), was added at t-4, and t0 in addition to […]; t+14 and t+26. Virus harvested from control and oligonucleotide-treated 9HTE cells was measured by infecting CV-1 cells and subsequently counting viral plaques. […] On the basis of these experiments, all subsequent experiments were performed with post-infectiontreatments only. Additionally, these experiments indicate the potential use of these compounds as a treatment for active infection as compared to a prophylactic measure.
The human tracheal epithelial cell line, 9HTE, (Gruenert et al., 1988) and CV-1 cells, (American Type Culture Collection, Rockville, Md., CCI#70) a green monkey kidney cell line which is highly permissive to RSV infection, were cultured in minimal essential medium (MEM) supplemented with 10% (v/v) fetal bovine serum (FBS), 2 mM L-glutamine, 1× MEM amino acids solution, 1× MEM non-essential amino acids solution, 100 U/ml penicillin, 100 μg/ml streptomycin and 0.25 μg/ml amphotericin B ("culture medium") (all reagents from Gibco BRL, Bethesda, Md.). RSV strain A2 (ATCC No. VR1302) was propagated in CV-1 cells. CV-1 monolayers were infected at a multiplicity of infection (M.O.I.) of 0.2 and cultured 46 h in MEM, 2% FBS, 1× Penicillin/Streptomycin (PS) in 5% CO2, 95% O2 at 37° C. Cells were then washed 2 times in MEM and subsequently covered in MEM, 2% FBS, 1× PS, 50 mM HEPES (pH7.5), 100 mM Mg(SO4). After 2 h at 37° C., cells were scraped and sonicated as previously described (Panuska et al., 1995). Aliquots (1 ml each) of cell sonicates were flash frozen in ethanol/dry ice within 20 min of scraping. Several aliquots were then thawed and titered by a plaque assay on CV-1 cells as previously described (Cirino et al., 1993). The range of virus yield from this procedure was 2 to 7×10^6 plaque forming units (pfu) per ml.
Infection of 9HTE cells was performed as previously described (Merolla et al., 1994). Briefly, confluent monolayers were exposed to RSV diluted in MEM, 2% FBS, for 2 h at 37° C. in 5% CO2, 95% O2. After exposure, cells were washed two times with serum-free MEM media and then fresh culture media (with 10% FBS) was added. Oligonucleotides were either added 4 h prior to infection (t-4) or immediately after infection (t+2) and also at t+14 and t+26. Cells were harvested for plaque assays at 36 h post-infection to determine viral titers as previously described (Cirino et al., 1993). Cells were washed twice to remove any residual antisense and were then scraped in MEM containing 2% FBS, 1× PS. 9HTE cells were sonicated for 20 sec on ice then the extracts were serially diluted and transferred to a confluent monolayer of CV-1 for quantitation of infectious viral particles. […]

For test [3], the system named is RSV strain A2. The experiment in a line: Virus yield reduction in MA-104 cells. The test is classed as cell-based, Respiratory syncytial virus. The settings on record: RSV yield reduced by 90%, MOI = 0.005, added twice daily for 4 d.
From the text: as §1, §2, §3
EC90 effective concentration to reduce RSV yield by 90%.

The test system of test [4] is RSV strain A2. The experiment in a line: Antiviral activity in Hep-2 cells, neutral red (reduction of RSV-induced CPE). The class given is cell-based, Respiratory syncytial virus. The following applies: neutral red, MOI = 0.005, added twice daily for 4 d, read on d 5.
From the text: as §1
determined with RSV strain A2, MOI = 0.005
as §3, §4

In the next test the test system is Hep-2 Cells. The experiment in a line: Cytotoxicity to Hep-2 cells (visual and dye uptake, rapidly dividing cells). The test is classed as cell-based, human.
From the text: as §1
(§5) IC50 50% inhibitory concentration for cytotoxicity to cells (visual

A further test concerns RSV M2 RNA. As to the kind of experiment: RT-PCR of M2 RNA from RSV-infected 9HTE cells. The class given is cell-based, Respiratory syncytial virus. The settings on record: RNA at 8 h post-infection, M.O.I.=10. As to the method: To determine if RSV RNA levels correlated with antiviral activity, RT-PCR analysis was performed on RNA isolated from RSV-infected and uninfected 9HTE cells with and without treatment with spA4 -antiRSV3'3'T/(8281-8299) or spA4 -antiRSV3'3'A/(8530-8547). An M2 RNA sequence in RSV (from nucleotides 7879 to 8465) was converted to cDNA and amplified by PCR. M2 RNA from the RSV-infected cells produced an RT-PCR DNA product that was clearly visible. […] Levels of GAPDH transcripts were similar in all of these RNA preparations.
RNA was collected from 2×10^5 9HTE cells at 8 h post-infection (M.O.I.=10) by RNAzol treatment as described by the manufacturer (Tel-Test, Inc, Freindswood, Tex.). RNA was isolated after 8 h to limit RSV replication to a single cycle. Isolated RNA (≈1 μg) was incubated with 100 pmoles of the appropriate downstream (-) primer listed below or 100 pmoles of random hexamer (used for glyceraldehyde-3-phosphatedehydrogenase, GAPDH, mRNA only). RNA and primers were heated to 70° C. for 10 min then cooled rapidly on ice for 5 min. […]
25 μl Hot-Start upper buffer contained 5 U Taq DNA polymerase (GibcoBRL) and 1/10th of the cDNA from the RT reaction. […] Aliquots of the RT/PCR mixtures were analyzed on 1% agarose/TBE gels.

A further test concerns MA-104 Cells. As to the kind of experiment: Cytotoxicity to MA-104 cells (visual and dye uptake, rapidly dividing cells). The test is classed as cell-based, murine.
From the text: as §1, §5

The record followed here is patent US6214805A, “RNase L activators and antisense oligonucleotides effective to treat RSV infections” (priority 1997, dated 2001).

A value given as a limit tells only on which side of the number the result lay.

Take “spA2'p(A2'p)3 -[(Bu)p]2 -(5'atg gtt att tgg gtt gtt3'-3't5') [spA4-antiRSV3'-3'T/(8281-8299)]”: the concentration for a half-maximal effect (EC50) came to 20 nM in the test on RSV strain A2 [1] and 300 nM in the test with RSV strain A2 [4]. Besides, the “% Inhibition of RSV replication” value was found to be 91.3% with RSV strain A2 [2] (3.3 μM oligonucleotide/treatment at t+2, t+14, t+26 h); 97% with RSV strain A2 [2] (6.6 μM oligonucleotide/treatment at t+2, t+14, t+26 h); 99.6% in the test on RSV strain A2 [2] (9.9 μM oligonucleotide/treatment at t+2, t+14, t+26 h). Moreover, the “comparison of anti-RSV activities (FIG. 3)” value with RSV strain A2 [2] (spA4-linked versus spA2-linked oligonucleotide) was “greater potency”. The same substance had an EC90 with RSV strain A2 [3] of 20 nM. Also, the IC50 with Hep-2 Cells and in the test on MA-104 Cells was > 10000 nM in each case. Besides, the “M2 RNA RT-PCR product” value in the test with RSV M2 RNA is “no M2 RNA detected”.
